In patent US4784944A, “Prothrombin time determining reagent and methods of using and preparing the same” (Behringwerke Aktiengesellschaft, priority 1984, dated 1988):
Starred links: 1 amine or outer side, 2 acyl side, 3 side chain; linkers in the order of their positions; H or OH if unused. Non-standard residues stand in square brackets, D forms with d. Residues, ends and D or L forms follow the SMILES beside them. *: point of attachment. Benzoyl(5-NH,2-NO2) = O=C(c1cc(N[*:1])ccc1[N+](=O)[O-])[*:2]; pNA = O=[N+]([O-])c1ccc(N*)cc1; Tos = Cc1ccc(S(=O)(=O)*)cc1

Columns and labels:
Type in all cases: biochemical
Thromboplastin A = assay: Hydrolysis of chromogenic substrates by thromboplastin A; conditions: Thromboplastin A 5%; substrate 50 μmol/l; after 92 hours at room temperature; 405 nm
Protocol: (§1) Difference in extinction after 92 hours at room temperature of a reagent prepared according to Example 1. The substrate concentration was 50 μmol/l, and the thromboplastins were dissolved in accordance with the statements of the manufacturer and added at a concentration of 5%.
(§2) 4 to 20 ml of human thromboplastin were added to 70 ml of an aqueous solution containing 5.844 g of NaCl, 1.47 g of CaCl2, 11.92 g of HEPES, 250 μg of polybrene® and 67.1 mg of H-D-Phe-Pro-Arg-ANBA-isopropylamide HCl in one liter, pH 7.6, and the mixture was freeze-dried.

Thromboplastin B = assay: Hydrolysis of chromogenic substrates by thromboplastin B; conditions: Thromboplastin B 5%; substrate 50 μmol/l; after 92 hours at room temperature; 405 nm
Protocol: as §1, §2

Thromboplastin C = assay: Hydrolysis of chromogenic substrates by thromboplastin C; conditions: Thromboplastin C 5%; substrate 50 μmol/l; after 92 hours at room temperature; 405 nm
Protocol: as §1, §2

Thromboplastin D = assay: Hydrolysis of chromogenic substrates by thromboplastin D; conditions: Thromboplastin D 5%; substrate 50 μmol/l; after 92 hours at room temperature; 405 nm
Protocol: as §1, §2

Thromboplastin E = assay: Hydrolysis of chromogenic substrates by thromboplastin E; conditions: Thromboplastin E 5%; substrate 50 μmol/l; after 92 hours at room temperature; 405 nm
Protocol: as §1, §2

Thromboplastin F = assay: Hydrolysis of chromogenic substrates by thromboplastin F; conditions: Thromboplastin F 5%; substrate 50 μmol/l; after 92 hours at room temperature; 405 nm
Protocol: as §1, §2

Thromboplastin G = assay: Hydrolysis of chromogenic substrates by thromboplastin G; conditions: Thromboplastin G 5%; substrate 50 μmol/l; after 92 hours at room temperature; 405 nm
Protocol: as §1, §2

[1] = test system: thromboplastins of the state of the art; assay: Hydrolysis of chromogenic substrates by thromboplastins; conditions: for Stability of a reagent containing the substrate (in words): reagent with thromboplastin having proteolytic activity
Protocol: The substrate concentration was 50 μmol/l, and the thromboplastins were dissolved in accordance with the statements of the manufacturer and added at a concentration of 5%.

Row | Molecule | Difference in extinction (hydrolysis of chromogenic substrate) (Thromboplastin A) | Difference in extinction (hydrolysis of chromogenic substrate) (Thromboplastin B) | Difference in extinction (hydrolysis of chromogenic substrate) (Thromboplastin C) | Difference in extinction (hydrolysis of chromogenic substrate) (Thromboplastin D) | Difference in extinction (hydrolysis of chromogenic substrate) (Thromboplastin E) | Difference in extinction (hydrolysis of chromogenic substrate) (Thromboplastin F) | Difference in extinction (hydrolysis of chromogenic substrate) (Thromboplastin G) | Extent of hydrolysis by the thromboplastins (in words) ([1]; extinction at 405 nm, Table 1) | Stability of a reagent containing the substrate (in words) [1]
1 | NCCCC[C@H](NC(=O)c1ccccc1)C(=O)Nc1ccc([N+](=O)[O-])cc1 [N-α-Benzoyl-L-Lysine-pNA, reference compound] | 0,319 | 0,525 | 0,433 | 0,402 | 0,372 | 0,198 | 0,503 |  | 
2 | CC(C)(C)CNC(=O)c1cc(NC(=O)[C@H](CCCNC(=N)N)NC(=O)[C@@H]2CCCN2C(=O)[C@H](N)Cc2ccccc2)ccc1[N+](=O)[O-] [D-Phe-Pro-Arg-ANBA-neopentylamide] | 0,003 | 0,009 | 0,011 | 0,007 | 0,014 | 0,003 | 0,002 |  | 
3 | CCCCNC(=O)c1cc(NC(=O)[C@H](CCCNC(=N)N)NC(=O)[C@@H]2CCCN2C(=O)[C@H](N)Cc2ccccc2)ccc1[N+](=O)[O-] [D-Phe-Pro-Arg-ANBA-n-Butylamide] | 0,021 | 0,023 | 0,019 | 0,013 | 0,030 | 0,023 | 0,012 |  | 
4 | CCOC(=O)CNC(=O)c1cc(NC(=O)[C@H](CCCNC(=N)N)NC(=O)[C@@H]2CCCN2C(=O)CNS(=O)(=O)c2ccc(C)cc2)ccc1[N+](=O)[O-] [Tos-Gly-Pro-Arg-ANBA-Glycine ethyl ester] (Tos-GPR[Benzoyl(5-NH,2-NO2)]G-OEt) | 0,029 | 0,034 | 0,028 | 0,026 | 0,037 | 0,023 | 0,029 |  | 
5 | CC(C)C[C@H](N)C(=O)Nc1ccc([N+](=O)[O-])cc1 [Leu-pNA, reference compound] | 0,974 | 0,681 | 0,721 | 0,593 | 0,871 | 0,536 | 1,124 |  | 
6 | CCOC(=O)CNC(=O)c1cc(NC(=O)[C@H](CCCNC(=N)N)NC(=O)[C@@H]2CCCN2C(=O)[C@H](N)Cc2ccccc2)ccc1[N+](=O)[O-] [D-Phe-Pro-Arg-ANBA-Glycine ethyl ester] (H-[dF]PR[Benzoyl(5-NH,2-NO2)]G-OEt) | 0,007 | 0,009 | 0,015 | 0,019 | 0,008 | 0,011 | 0,003 |  | 
7 | D-Phe-Pro-Arg-ANBA-Valine methyl ester | 0,003 | 0,031 | 0,008 | 0,020 | 0 | 0 | 0,002 |  | 
8 | Cc1ccc(S(=O)(=O)NCC(=O)N2CCC[C@H]2C(=O)N[C@@H](CCCNC(=N)N)C(=O)Nc2ccc([N+](=O)[O-])c(C(=O)NC(C)C)c2)cc1 [Tos-Gly-Pro-Arg-ANBA-isopropylamide] | 0,035 | 0,039 | 0,030 | 0,023 | 0,041 | 0,029 | 0,018 |  | 
9 | Cc1ccc(S(=O)(=O)NCC(=O)N2CCC[C@H]2C(=O)N[C@@H](CCCNC(=N)N)C(=O)Nc2ccc([N+](=O)[O-])cc2)cc1 [Tos-Gly-Pro-Arg-pNA, reference compound] (Tos-Gly-Pro-Arg-pNA) | 0,190 | 0,143 | 0,115 | 0,137 | 0,123 | 0,116 | 0,149 | rapid consumption of the substrate | stable for only a very short time
10 | CC(C)NC(=O)c1cc(NC(=O)[C@H](CCCNC(=N)N)NC(=O)[C@@H]2CCCN2C(=O)[C@H](N)Cc2ccccc2)ccc1[N+](=O)[O-] [D-Phe-Pro-Arg-ANBA-isopropylamide, H-D-Phe-Pro-Arg-ANBA-isopropylamide] | 0,006 | 0,016 | 0,010 | 0,013 | 0,011 | 0 | 0 |  | stable for a considerably longer time
11 | C[C@H](NC(=O)CCC(=O)O)C(=O)N[C@@H](C)C(=O)N[C@@H](C)C(=O)Nc1ccc([N+](=O)[O-])cc1 [Suc-(Ala)3-pNA, reference compound] | 0,211 | 0,324 | 0,248 | 0,411 | 0,178 | 0,310 | 0,202 |  | 
